Experimental data from US20250120969A1, “METHODS AND COMPOSITIONS FOR TREATING INFLAMMATION INJURY IN THE LUNGS” (CalciMedica, Inc., priority 2022, published 2025).

Columns and labels:
human lymphocytes = assay: In vitro cytokine release in human lymphocytes; type: cell-based
Source text: (§1) Preclinical data supports the use of CRAC inhibitors (e.g. N-(5-(6-Chloro-2,2-difluorobenzo[d][1,3]dioxol-5-yl)pyrazin-2-yl)-2-fluoro-6-methylbenzamide, Compound 1) in severe COVID-19 pneumonia.

[1] = test system: lung tissue cytokines and neutrophil infiltration; assay: Animal models of acute pancreatitis (AP) and lung injury; type: in vivo
Source text: as §1

[2] = test system: patients with AP and accompanying SIRS plus hypoxemia; assay: Clinical and pharmacodynamic study in patients with acute pancreatitis, SIRS and hypoxemia; details: human, in vivo
CRAC channels = CRAC channels (Homo sapiens, UniProt Q96D31); assay: CRAC channel inhibition
CRAC channels, sequence (Q96D31 whole entry): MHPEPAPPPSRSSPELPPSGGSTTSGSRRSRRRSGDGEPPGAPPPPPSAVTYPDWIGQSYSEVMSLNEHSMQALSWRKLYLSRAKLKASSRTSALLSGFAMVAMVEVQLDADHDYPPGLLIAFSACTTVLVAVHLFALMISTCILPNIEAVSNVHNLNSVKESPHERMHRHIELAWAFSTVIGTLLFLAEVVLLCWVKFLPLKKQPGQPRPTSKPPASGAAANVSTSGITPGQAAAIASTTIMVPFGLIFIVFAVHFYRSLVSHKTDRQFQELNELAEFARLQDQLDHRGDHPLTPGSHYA

## Cc1cccc(F)c1C(=O)Nc1cnc(-c2cc3c(cc2Cl)OC(F)(F)O3)cn1 [Compound 1, N-(5-(6-Chloro-2,2-difluorobenzo[d][1,3]dioxol-5-yl)pyrazin-2-yl)-2-fluoro-6-methylbenzamide]
Human lymphocytes
  Release of multiple cytokines: inhibits release of multiple cytokines
[1]
  Cytokines and neutrophil infiltration in lung tissue: inhibit cytokines and neutrophil infiltration in lung tissue
[2]
  IL-6 levels in patients: marked reduction in IL-6 levels
  Respiratory dysfunction in patients: beneficial effects on respiratory dysfunction
CRAC channels
  Inhibition of CRAC channels: potent and selective
